According to patent US20100280061A1, “NOVEL ANALGESIC THAT BINDS FILAMIN A” (priority 2009, published 2010):

What was measured:
[1] = target: T1, mu opiate receptor (MOR) (Rattus norvegicus, UniProt P33535); assay: [35S]GTPγS binding assay using striatal membranes (MOR agonist activity); type: biochemical; design: MOR agonist activity, [35S]GTPγS binding to Gαo, 0.1 μM / MOR agonist activity, [35S]GTPγS binding to Gαo, 1 μM / MOR agonist activity, [35S]GTPγS binding to Gαo, 1 μM + BFNA: reference not given here; conditions: for MOR agonist activity, [35S]GTPγS binding to Gαo, 0.1 μM: 0.1 μM compound; for MOR agonist activity, [35S]GTPγS binding to Gαo, 0.1 μM / MOR agonist activity, [35S]GTPγS binding to Gαo, 1 μM: striatal membranes; for MOR agonist activity, [35S]GTPγS binding to Gαo, 1 μM + BFNA: 1 μM compound + 1 μM β-funaltrexamine; for MOR agonist activity, [35S]GTPγS binding to Gαo, 1 μM: 1 μM compound
T1 construct: from tissue; host or cells: striatal tissue (membrane preparation)
T1 sequence (P33535 whole entry): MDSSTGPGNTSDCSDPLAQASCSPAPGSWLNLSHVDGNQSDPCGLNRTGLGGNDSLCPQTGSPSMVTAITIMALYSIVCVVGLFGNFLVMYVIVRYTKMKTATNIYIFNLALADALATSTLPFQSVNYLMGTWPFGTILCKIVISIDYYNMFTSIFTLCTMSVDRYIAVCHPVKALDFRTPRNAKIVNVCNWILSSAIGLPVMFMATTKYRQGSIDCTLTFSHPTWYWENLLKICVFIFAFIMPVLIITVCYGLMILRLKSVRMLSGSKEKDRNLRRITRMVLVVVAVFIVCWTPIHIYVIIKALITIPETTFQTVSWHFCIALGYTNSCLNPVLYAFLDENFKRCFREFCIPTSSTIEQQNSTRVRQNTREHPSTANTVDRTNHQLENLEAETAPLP
Method: To assess the mu opiate receptor (MOR) agonist activity of positive compounds from the FLNA screening, compounds were tested in a [^35S]GTPγS binding assay using striatal membranes. Our previous study has shown that in striatal membranes, activation of MOR leads to an increase in [^35S]GTPγS binding to Gαo (Wang et al., 2005 Neuroscience 135:247-261).
Striatal tissue was homogenized in 10 volumes of ice cold 25 mM HEPES buffer, pH 7.4, which contained 1 mM EGTA, 100 mM sucrose, 50 μg/ml leupeptin, 0.04 mM PMSF, 2 μg/ml soybean trypsin inhibitor and 0.2% 2-mercaptoethanol. The homogenates were centrifuged at 800×g for 5 minutes and the supernatants were centrifuged at 49,000×g for 20 minutes. The resulting pellets were suspended in 10 volume of reaction buffer, which contained 25 mM HEPES, pH 7.5, 100 mM NaCl, 50 μg/ml leupeptin, 2 μg/ml soybean trypsin inhibitor, 0.04 mM PMSF and 0.02% […].
The resultant striatal membrane preparation (200 μg) was admixed and maintained (incubated) at 30° C. for 5 minutes in reaction buffer as above that additionally contained 1 mM MgCl2 and 0.5 nM [^35S]GTPγS (0.1 μCi/assay, PerkinElmer Life and Analytical Sciences) in a total volume of 250 μl and continued for 5 minutes in the absence or presence of 0.1-10 μM of an assayed compound of interest. The reaction was terminated by dilution with 750 μl of ice-cold reaction buffer that contained 20 mM MgCl2 and 1 mM EGTA and immediate centrifugation at 16,000×g for 5 minutes.
The resulting pellet was solubilized by sonicating for 10 seconds in 0.5 ml of immunoprecipitation buffer containing 0.5% digitonin, 0.2% sodium cholate and 0.5% NP-40. Normal rabbit serum (1 μl) was added to 1 ml of lysate and incubated at 25° C. for 30 minutes. Nonspecific immune complexes were removed by incubation with 25 μl of protein A/G-conjugated agarose beads at 25° C. for 30 minutes followed by centrifugation at 5,000×g at 4° C. for 5 minutes. The supernatant was divided and separately incubated at 25° C. for 30 minutes with antibodies raised against Gαo proteins (1:1,000 dilutions).
The immunocomplexes so formed were collected by incubation at 25° C. for 30 minutes with 40 μl of agarose-conjugated protein A/G beads and centrifugation at 5,000×g at 4° C. for 5 minutes. The pellet was washed and suspended in buffer containing 50 mM Tris-HCl, pH 8.0, and 1% NP-40. The radioactivity in the suspension was determined by liquid scintillation spectrometry. […] DAMGO (H-Tyr-D-Ala-Gly-N-MePhe-Gly-OH; 1 or 10 μM) was used as a positive control.

[2] = target: Bn-VAKGL pentapeptide of filamin A (FLNA) (Homo sapiens, UniProt P21333); assay: FITC-NLX-based FLNA screening assay (FLNA peptide binding assay); conditions: 10 nM FITC-NLX; for Percent inhibition of FITC-NLX binding, 0.01 μM: 0.01 μM compound; for Percent inhibition of FITC-NLX binding, 0.1 μM: 0.1 μM compound; for Percent inhibition of FITC-NLX binding, 1 μM: 1 μM compound
Method: The final assay volume is 100 μl.
Compounds are tested in triplicate or quadruplicate.

SMILES | MOR agonist activity, [35S]GTPγS binding to Gαo, 0.1 μM [1] | MOR agonist activity, [35S]GTPγS binding to Gαo, 1 μM + BFNA [1] | MOR agonist activity, [35S]GTPγS binding to Gαo, 1 μM [1] | Percent inhibition of FITC-NLX binding, 0.01 μM [2] | Percent inhibition of FITC-NLX binding, 0.1 μM [2] | Percent inhibition of FITC-NLX binding, 1 μM [2]
COc1ccc(C(=O)CC2c3c(cc4c(c3OC)OCO4)CC[N+]2(C)C)cc1 (stereo not drawn) [B0024] | 155.8% | 20.2% | 285.9% | 34.8% | 43.4% | 47.7%
COc1c2c(cc3c1C(CC(=O)Cc1ccc(C#N)cc1)[N+](C)(C)CC3)OCO2 (stereo not drawn) [B0012] | 167.4% | 145.1% | 212.0% | 39.4% | 46.9% | 51.7%
COc1cccc(CCC(=O)CC2c3c(cc4c(c3OC)OCO4)CC[N+]2(C)C)c1 (stereo not drawn) [B0034] | 122.5% | 41.8% | 235.2% | 49.1% | 54.2% | 59.1%
COc1ccccc1CC(O)CC1c2c(cc3c(c2OC)OCO3)CC[N+]1(C)C.[I-] (stereo not drawn) [B0032] | 221.1% | 15.6% | 297.7% | 45.1% | 51.3% | 48.9%
COc1ccc(CCC(=O)CC2c3c(cc4c(c3OC)OCO4)CC[N+]2(C)C)cc1 (stereo not drawn) [B0016] | 167.7% | 72.2% | 213.6% |  |  | 
COc1c2c(cc3c1C(CC(=O)Cc1ccccc1C)[N+](C)(C)CC3)OCO2 (stereo not drawn) [B0031] | 210.8% | 28.8% | 272.0% | 36.2% | 44.2% | 50.5%
COc1ccc(C(=O)CC2c3c(cc4c(c3OC)OCO4)CC[N+]2(C)C)cc1OC.[I-] (stereo not drawn) [B0026] | 152.0% | 28.8% | 233.3% | 41.1% | 43.3% | 48.2%
COc1c2c(cc3c1C(CC(=O)Cc1ccccc1Cl)[N+](C)(C)CC3)OCO2.[I-] (stereo not drawn) [B0039] | 171.8% | 78.3% | 290.5% | 43.3% | 45.7% | 50.9%
COc1cc(OC)cc(C(=O)CC2c3c(cc4c(c3OC)OCO4)CC[N+]2(C)C)c1.[I-] (stereo not drawn) [B0035] | 188.0% | 74.2% | 248.7% | 45.4% | 44.7% | 51.0%
COc1ccc(C(=O)CC2c3c(cc4c(c3OC)OCO4)CC[N+]2(C)C)c(O)c1.[I-] (stereo not drawn) [B0033] | 149.3% | 41.9% | 188.9% | 42.1% | 46.8% | 49.4%
COc1c2c(cc3c1C(CC(=O)CCc1ccc(Cl)cc1)[N+](C)(C)CC3)OCO2 (stereo not drawn) [B0017] | 99.6% | 49.6% | 122.0% | 28.3% | 36.6% | 44.6%
